From PubChem BioAssay AID434951 (Broad Institute, 2010)
Calls of active or inactive are those of the source.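 How the source made its calls: active means a fitted half-maximal concentration EC50 for the rise in nuclear signal no higher than ten times the top dose tested; inconclusive means flat fit with activity between 30% and 70%, or unusable fit; inactive means EC50 beyond ten times the top dose.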

biological target: Hypoxia-inducible factor 1-alpha (Homo sapiens) (UniProt Q16665); assay: HIF pathway activation, GFP-HIF1alpha translocation – imaging, fluorescence, U2OS GFP-HIF1alpha, confirmation (AID 434951); settings: U2OS GFP-HIF1alpha nuclear intensity, high-content imaging
Sequence (Q16665 whole entry, looked up): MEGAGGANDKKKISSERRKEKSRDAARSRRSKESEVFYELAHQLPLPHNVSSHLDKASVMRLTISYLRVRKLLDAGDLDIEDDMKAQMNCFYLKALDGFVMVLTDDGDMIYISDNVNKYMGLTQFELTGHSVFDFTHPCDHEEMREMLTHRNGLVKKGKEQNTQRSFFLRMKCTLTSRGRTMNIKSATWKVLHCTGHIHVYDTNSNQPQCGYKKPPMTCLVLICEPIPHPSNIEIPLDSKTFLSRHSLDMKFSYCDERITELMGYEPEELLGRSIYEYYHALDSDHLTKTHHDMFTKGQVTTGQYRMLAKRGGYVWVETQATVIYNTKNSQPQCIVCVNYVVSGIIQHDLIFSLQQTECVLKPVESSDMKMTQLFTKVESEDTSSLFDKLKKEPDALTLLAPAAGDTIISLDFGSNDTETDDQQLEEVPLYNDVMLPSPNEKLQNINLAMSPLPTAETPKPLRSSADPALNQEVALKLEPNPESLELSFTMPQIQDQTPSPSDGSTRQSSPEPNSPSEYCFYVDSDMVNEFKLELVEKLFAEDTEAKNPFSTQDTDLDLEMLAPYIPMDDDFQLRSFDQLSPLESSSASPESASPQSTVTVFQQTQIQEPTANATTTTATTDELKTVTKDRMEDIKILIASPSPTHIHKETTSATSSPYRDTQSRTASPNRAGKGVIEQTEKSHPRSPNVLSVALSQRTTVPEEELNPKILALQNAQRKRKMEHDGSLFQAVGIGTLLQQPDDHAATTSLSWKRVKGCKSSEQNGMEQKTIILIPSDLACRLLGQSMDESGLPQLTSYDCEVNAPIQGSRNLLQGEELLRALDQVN

SMILES	EC50
CCCCC(=O)Nc1ccc(NC(=O)CC)cc1OC	> 35 µM (inactive)
Cc1cc(C)c(NS(=O)(=O)c2ccc3c(c2)NC(=O)CCS3)c(C)c1	> 35 µM (inactive)
COc1ccc(-c2nnc(-c3cc4c(ccc5ccccc54)oc3=O)o2)cc1	> 35 µM (inactive)
COc1ccc(C2(C)NC(=O)NC2=O)cc1OC (stereo unspecified)	> 35 µM (inactive)
COc1ccc(NC(=O)CSc2ncnc3[nH]ncc23)cc1	> 35 µM (inactive)
CCN1CCN(c2ccc([N+](=O)[O-])cc2C=C2C(=O)NC(=O)NC2=O)CC1	> 35 µM (inactive)
COc1ccc(NC(=O)Nc2ccc(Br)cn2)cc1	> 35 µM (inactive)
COc1ccccc1-c1cc(C(F)(F)F)nc(S(=O)(=O)CCCC(=O)N2CCCCC2C)n1 (stereo unspecified)	> 35 µM (inactive)
Cc1ccc2nc(SCC(=O)c3ccccc3)nc(=O)n2c1	> 35 µM (inactive)
COc1ccc(-n2c(C)cc(C(=O)CCl)c2C)cc1	12.4 µM
Oc1ccc(CN2CCc3ccccc3C2)c2cccnc12	2.4 µM
O/N=C1/C2C3CC4C5C3C1C5C1(OCCO1)C42 (stereo unspecified)	> 35 µM (inactive)
CC(=O)c1cccc(NC(=O)CSC(=O)c2ccccc2)c1	> 35 µM (inactive)
COc1ccc(C(CC(=O)Nc2ccccc2OC)n2cccc2)cc1 (stereo unspecified)	> 35 µM (inactive)
CCSc1cc(C)nc2c(-c3ccccc3)cnn12	> 35 µM (inactive)
O=C(COC(=O)c1ccccc1Nc1ccccc1)NCc1ccccc1Cl	> 35 µM (inactive)
CCOC(=O)CN1C(=N)N(c2nc(NC(C)C)nc(NC(C)C)n2)CC1=O	> 35 µM (inactive)
Oc1[nH]c2ccc(Br)cc2c1N=NC(=S)N1CCOCC1	6.79 µM
CCCN(CCC)C(C)C(=O)NCC1(c2ccccc2)CCCC1 (stereo unspecified)	> 35 µM (inactive)
CCCOc1ccc(/C=N/NC(=O)CSc2ccccn2)cc1OC	> 35 µM (inactive)
CC(Sc1nnc(COc2ccc([N+](=O)[O-])cc2)n1C)C(=O)O (stereo unspecified)	> 35 µM (inactive)
CCCCC(=O)NC(c1ccc(N(C)C)cc1)c1ccc2cccnc2c1O (stereo unspecified)	3.09 µM
O=C(c1ccc(OC2CCN(Cc3ccc(F)cc3)CC2)cc1)N1CCCC1	> 35 µM (inactive)
CCOC(=O)c1sc(=S)n(-c2ccccc2)c1C	> 35 µM (inactive)
CC/C(=N\N1CCCCCC1)c1c(O)n(-c2ccc(C)cc2)c(=O)[nH]c1=O	> 35 µM (inactive)
Nc1nonc1-n1nnc(C(=O)N/N=C/c2cc(Br)ccc2O)c1CSC1=NCCS1	29.6 µM

SMILES	EC50
COc1cccc(/C=N/Nc2ncnc3scc(-c4ccccc4)c23)c1O	1.27 µM
COc1cc2ncnc(NCc3cccs3)c2cc1OC	> 35 µM (inactive)
CCOC(=O)C1CCN(C(=O)C2CCCN(c3ncnc4c3nc3n4CCCCC3)C2)CC1 (stereo unspecified)	> 35 µM (inactive)
CCCC(C)NC(=O)CN1C(=O)NC2(CCc3ccccc32)C1=O (stereo unspecified)	> 35 µM (inactive)
CC(C)Sc1nc(N)c2c3c(sc2n1)CN(C)CC3	> 35 µM (inactive)
CCOC(=O)c1[nH]cnc1N=Nc1c(O)ccc2ccccc12	2.2 µM
O=C(NCc1ccc(F)cc1)C1CCN(S(=O)(=O)N2CCOCC2)CC1	> 35 µM (inactive)
O=C(CSC1c2ccccc2-c2ccccc21)N/N=C/c1ccccc1O	6.46 µM
CC(C)C(=O)NC(c1ccc(Cl)cc1Cl)c1ccc2cccnc2c1O (stereo unspecified)	4.88 µM
CCOC(=O)C1=C(c2ccccc2)NC(=O)NC1c1ccc(O)c(Cl)c1 (stereo unspecified)	12.7 µM
CCOc1ccccc1NC(=O)CSc1ncnc2c1oc1ccccc12	> 35 µM (inactive)
CC(C)C(=O)N1CCN(c2ccc(NC(=O)COc3ccccc3[N+](=O)[O-])cc2)CC1	> 35 µM (inactive)
CCCC(=O)NC(c1ccc(N(C)C)cc1)c1ccc2cccnc2c1O (stereo unspecified)	6.62 µM
COc1ccc(C(NC(=O)c2cccnc2)c2cc(Cl)c3cccnc3c2O)cc1OC (stereo unspecified)	7.09 µM
Cc1cccc(NC(=O)C2CC(=O)NC(Nc3nc4ccccc4s3)=N2)c1 (stereo unspecified)	> 35 µM (inactive)
O=C(C[n+]1ccn(CCCNP2(=O)C=C(c3ccccc3)OC(c3ccccc3)=C2)c1)c1cccs1	> 35 µM (inactive)
COc1ccc(OC)c2sc(N3CCN(C(=O)c4ccc5ncsc5c4)CC3)nc12	> 35 µM (inactive)
O=[N+]([O-])c1ccc(OCCCCN2CCCCC2)cc1	> 35 µM (inactive)
CCc1ccc(C2C(=O)c3ccccc3C2=O)cc1	> 35 µM (inactive)
O=C(NC(=S)Nc1ccccn1)c1cc(-c2ccccc2)nc2ccccc12	> 35 µM (inactive)
Cc1ccccc1NC(=O)c1ccccc1O	> 35 µM (inactive)
Cc1ccc(Nc2nnc(-c3ccccc3N)o2)cc1C	> 35 µM (inactive)
CC(C)c1nnc(NC(=O)CCC(=O)NC2CC2)s1	> 35 µM (inactive)
CCCC(=O)NC(c1ccc(OC)cc1)c1ccc2cccnc2c1O (stereo unspecified)	7.24 µM
Cc1ccc(N(C)S(=O)(=O)c2ccc(-c3cc(C)no3)s2)cc1	> 35 µM (inactive)
